Paper PMC5095863 (Chembiochem, 2016)

Experiments:
Assay type in all cases: biochemical
SIRT6 [1] = molecular target: T1, SIRT6 (Homo sapiens, UniProt Q8N6T7); assay: Fluorescence enhancement due to enzymatic reaction of SFP1-3 with SIRT6; conditions: 5 mM NAM, 48 nM SIRT6, 500 μM NAD, 37 °C
SIRT6 [2] = molecular target: T1, SIRT6; assay: Evaluation of SIRT inhibitors and activators with SFP3, SIRT6
SIRT1 = molecular target: T2, SIRT1 (Homo sapiens, UniProt Q96EB6); assay: Evaluation of SIRT inhibitors and activators with SFP3, SIRT1; conditions: hydrolysis of 2.5 μM SFP3, 7 nM SIRT1, 500 μM NAD+, 37 °C, 60 min
T2 sequence (Q96EB6 1-747): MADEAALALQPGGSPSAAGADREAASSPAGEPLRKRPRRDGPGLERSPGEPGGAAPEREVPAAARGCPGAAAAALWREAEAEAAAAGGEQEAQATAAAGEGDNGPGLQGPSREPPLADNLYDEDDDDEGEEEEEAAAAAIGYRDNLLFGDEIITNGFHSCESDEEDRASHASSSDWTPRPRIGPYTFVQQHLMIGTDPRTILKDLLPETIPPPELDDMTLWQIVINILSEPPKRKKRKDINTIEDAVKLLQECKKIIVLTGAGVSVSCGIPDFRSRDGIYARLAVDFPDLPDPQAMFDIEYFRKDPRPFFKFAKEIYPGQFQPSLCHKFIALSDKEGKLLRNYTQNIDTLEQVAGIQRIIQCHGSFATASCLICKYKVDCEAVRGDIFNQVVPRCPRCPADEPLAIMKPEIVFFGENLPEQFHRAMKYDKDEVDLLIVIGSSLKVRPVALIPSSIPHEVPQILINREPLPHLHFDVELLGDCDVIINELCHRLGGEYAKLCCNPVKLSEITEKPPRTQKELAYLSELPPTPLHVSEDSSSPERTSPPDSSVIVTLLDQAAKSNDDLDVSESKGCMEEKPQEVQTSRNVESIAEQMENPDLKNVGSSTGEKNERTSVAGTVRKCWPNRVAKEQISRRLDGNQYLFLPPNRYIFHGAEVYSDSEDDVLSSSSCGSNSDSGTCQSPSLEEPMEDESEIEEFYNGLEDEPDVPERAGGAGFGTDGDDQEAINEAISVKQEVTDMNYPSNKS

T1 sequence (Q8N6T7 whole entry): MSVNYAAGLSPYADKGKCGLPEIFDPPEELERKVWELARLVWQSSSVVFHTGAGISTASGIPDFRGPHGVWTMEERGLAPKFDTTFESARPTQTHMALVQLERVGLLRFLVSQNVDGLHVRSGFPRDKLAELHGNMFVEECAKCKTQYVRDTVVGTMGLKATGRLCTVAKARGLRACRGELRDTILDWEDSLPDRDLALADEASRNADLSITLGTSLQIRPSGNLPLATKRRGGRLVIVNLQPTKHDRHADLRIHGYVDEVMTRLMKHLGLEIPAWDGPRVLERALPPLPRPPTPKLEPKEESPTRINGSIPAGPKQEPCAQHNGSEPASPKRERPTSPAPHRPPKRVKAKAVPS

effect on SIRT6-dependent fluorescence increments of SFP2 and SFP3 (SIRT6 [1]) | IC50 (SIRT6 [2]) | SMILES | effect on SIRT6 activity (SIRT6 [2]; hydrolysis of 2.5 μM SFP3, 48 nM SIRT6, 500 μM NAD+, 37 °C, 60 min) | effect on SIRT1 activity (SIRT1)
suppressed | – | NC(=O)c1cccnc1 [NAM, nicotinamide] | – | –
– | – | O=c1c(O)c(-c2ccc(O)c(O)c2)oc2cc(O)cc(O)c12 [Quercetin, quercetin] | inhibition at lower concentration, but activation at higher concentration | inhibition at lower concentration, but activation at higher concentration
– | ~190 µM | Oc1ccc(/C=C/c2cc(O)cc(O)c2)cc1 [Resveratrol, resveratrol] | – | did not affect
